Biological target: T1, human IDO1 (Homo sapiens, UniProt P14902)
T1 construct: expressed in transfected cells
Experiment: HEK Human IDO-1 inhibition assay (kynurenine, Ehrlich reagent, absorbance 490 nm)
Format: cell-based
Conditions: human IDO1/HEK293 cells, 20 hours incubation; read-out: HEK Human IDO-1 Bio Activity (IDO IC50)
Protocol: HEK293 cells were transfected with a pCDNA-based mammalian expression vector harboring human IDO1 cDNA (NM 002164.2) by electroporation. They were cultured in medium (DMEM with 10% FBS) containing 1 mg/ml G418 for two weeks. Clones of HEK293 cells that stably expressed human IDO1 protein were selected and expanded for IDO inhibition assay.
The human IDO1/HEK293 cells were seeded at 10,000 cells per 50 μL per well with RPMI/phenol red free media contains 10% FBS in a 384-well black wall clear bottom tissue culture plate (Matrix Technologies LLC) 100 nL of certain concentration of compound was then added to each well using ECHO liquid handling systems. The cells were incubated for 20 hours in 37° C. incubator with 5% CO2.
The compound treatments were stopped by adding trichloroacetic acid (Sigma-Aldrich) to a final concentration at 0.2%. The cell plate was further incubated at 50° C. for 30 minute. The equal volume supernatant (20 μL) and 0.2% (w/v) Ehrlich reagent (4-dimethylaminobenzaldehyde, Sigma-Aldrich) in glacial acetic acid were mixed in a new clear bottom 384-well plate. This plate was then incubated at room temperature for 30 minute. The absorbance at 490 nm was measured on Envision plate reader.
Compound IC50 values were calculated using the counts of 500 nM of a reference standard treatment as one hundred percent inhibition, and counts of no compound but DMSO treatment as zero percent inhibition.

T1 sequence (P14902 whole entry): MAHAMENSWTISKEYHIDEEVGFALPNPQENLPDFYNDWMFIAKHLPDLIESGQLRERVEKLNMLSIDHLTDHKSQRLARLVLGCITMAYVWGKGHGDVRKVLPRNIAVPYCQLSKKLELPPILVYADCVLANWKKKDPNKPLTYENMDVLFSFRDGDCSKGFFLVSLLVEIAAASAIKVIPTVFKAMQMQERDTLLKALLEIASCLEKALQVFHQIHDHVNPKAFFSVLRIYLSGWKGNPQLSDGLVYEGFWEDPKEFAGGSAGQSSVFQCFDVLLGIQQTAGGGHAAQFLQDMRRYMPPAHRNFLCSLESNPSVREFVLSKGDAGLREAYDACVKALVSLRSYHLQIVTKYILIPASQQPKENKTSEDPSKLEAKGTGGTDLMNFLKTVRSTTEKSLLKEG

Compound | IC50
C[C@@H](NC(=O)[C@H]1C[C@@H](F)C1)[C@H]1CC[C@@H](c2ccnc3ccc(F)cc32)CC1 [Example 19, (1s,3S)-3-fluoro-N-((R)-1-((1s,4S)-4-(6-fluoroquinolin-4-yl)cyclohexyl)ethyl)-cyclobutanecarboxamide] | < 1 µM
C[C@@H](NC(=O)Cc1ccccc1F)[C@H]1CC[C@@H](c2ccnc3ccc(F)cc32)CC1 [Example 12, 2-(2-fluorophenyl)-N-((R)-1-((1s,4S)-4-(6-fluoroquinolin-4-yl)cyclohexyl)ethyl)acetamide] | < 1 µM
C[C@@H](NC(=O)C1CCCCC1)[C@H]1CC[C@@H](c2ccnc3ccc(F)cc32)CC1 [Example 15, N-((R)-1-((1s,4S)-4-(6-fluoroquinolin-4-yl)cyclohexyl)ethyl)-cyclohexanecarboxamide] | < 0.1 µM
O=C(Cc1ccc(F)cc1)NCC1CCN(c2ccnc3ccc(F)cc23)CC1 [Example 2, 2-(4-Fluorophenyl)-N-((1-(6-fluoroquinolin-4-yl)piperidin-4-yl)methyl)acetamide] | < 0.1 µM
C[C@@H](NC(=O)C12CCC(Cl)(CC1)CC2)[C@H]1CC[C@@H](c2ccnc3ccc(F)cc32)CC1 [Example 14, 4-chloro-N—((R)-1-((cis)-4-(6-fluoroquinolin-4-yl)cyclohexyl)ethyl)bicyclo [2.2.2]octane-1-carboxamide] | < 0.1 µM
O=C(Cc1ccccc1F)NCC1CCN(c2ccnc3ccc(F)cc23)CC1 [Example 3, 2-(2-Fluorophenyl)-N-((1-(6-fluoroquinolin-4-yl)piperidin-4-yl)methyl)acetamide] | < 1 µM
C[C@@H](NC(=O)Cc1ccc(Cl)cc1)[C@H]1CC[C@@H](c2ccnc3ccc(F)cc32)CC1 [Example 5, 2-(4-chlorophenyl)-N-((R)-1-((1s,4S)-4-(6-fluoroquinolin-4-yl)cyclohexyl)ethyl)acetamide] | < 1 µM
C[C@@H](CNC(=O)c1ccc(Cl)cc1)[C@H]1CC[C@@H](c2ccnc3ccc(F)cc32)CC1 [Example 4, 4-chloro-N—((R)-2-((cis)-4-(6-fluoroquinolin-4-yl)cyclohexyl)propyl)benzamide] | < 1 µM
C[C@@H](C(=O)N[C@H](C)[C@H]1CC[C@@H](c2ccnc3ccc(F)cc32)CC1)c1ccccc1 [Example 9, (R)-N-((R)-1-((1s,4S)-4-(6-fluoroquinolin-4-yl)cyclohexyl)ethyl)-2-phenylpropanamide] | < 1 µM
C[C@H](C(=O)N[C@H](C)[C@H]1CC[C@@H](c2ccnc3ccc(F)cc32)CC1)c1ccccc1 [Example 8, (S)-N-((R)-1-((1s,4S)-4-(6-fluoroquinolin-4-yl)cyclohexyl)ethyl)-2-phenylpropanamide] | < 1 µM
C[C@@H](NC(=O)C1CC1)[C@H]1CC[C@@H](c2ccnc3ccc(F)cc32)CC1 [Example 16, N-((R)-1-((1s,4S)-4-(6-fluoroquinolin-4-yl)cyclohexyl)ethyl)-cyclopropanecarboxamide] | < 1 µM
C[C@@H](NC(=O)[C@H]1CC[C@H](O)CC1)[C@H]1CC[C@@H](c2ccnc3ccc(F)cc32)CC1 [Example 22, (1r,4R)-N-((R)-1-((1s,4S)-4-(6-fluoroquinolin-4-y1)cyclohexyl)ethyl)-4-hydroxycxclohexanecarboxamide] | < 1 µM
C[C@@H](NC(=O)C1CC(F)(F)C1)[C@H]1CC[C@@H](c2ccnc3ccc(F)cc32)CC1 [Example 17, 3,3-difluoro-N-((R)-1-((1s,4S)-4-(6-fluoroquinolin-4-yl)cyclohexyl)ethyl)-cyclobutanecarboxamide] | < 1 µM
CO[C@@H](C(=O)N[C@H](C)[C@H]1CC[C@@H](c2ccnc3ccc(F)cc32)CC1)c1ccccc1 [Example 11] | < 0.1 µM
C[C@@H](NC(=O)Cc1cccc(Cl)c1)[C@H]1CC[C@@H](c2ccnc3ccc(F)cc32)CC1 [Example 7, 2-(3-chlorophenyl)-N-((R)-1-((1s,4S)-4-(6-fluoroquinolin-4-yl)cyclohexyl)ethyl)acetamide] | < 1 µM
C[C@@H](NC(=O)C1CCC1)[C@H]1CC[C@@H](c2ccnc3ccc(F)cc32)CC1 [Example 20, N-((R)-1-((1s,4S)-4-(6-fluoroquinolin-4-yl)cyclohexyl)ethyl)-cyclobutanecarboxamide] | < 1 µM
C[C@@H](NC(=O)C1(c2ccc(Cl)cc2)CCC1)[C@H]1CC[C@@H](c2ccnc3ccc(F)cc32)CC1 [Example 13, 1-(4-chlorophenyl)-N-((R)-1-((1s,4S)-4-(6-fluoroquinolin-4-yl)cyclohexyl)ethyl)-cyclobutanecarboxamide] | < 0.1 µM
C[C@@H](NC(=O)Cc1ccccc1Cl)[C@H]1CC[C@@H](c2ccnc3ccc(F)cc32)CC1 [Example 6, 2-(2-chlorophenyl)-N-((R)-1-((1s,4S)-4-(6-fluoroquinolin-4-yl)cyclohexyl)ethyl)acetamide] | < 1 µM
C[C@@H](NC(=O)[C@H]1CC[C@@H](O)CC1)[C@H]1CC[C@@H](c2ccnc3ccc(F)cc32)CC1 [Example 21, (1s,4S)-N-((R)-1-((1s,4S)-4-(6-fluoroquinolin-4-yl)cyclohexyl)ethyl)-4-hydroxycxclohexanecarboxamide] | < 1 µM
C[C@@H](NC(=O)[C@H]1C[C@H](F)C1)[C@H]1CC[C@@H](c2ccnc3ccc(F)cc32)CC1 [Example 18, (1r,3R)-3-fluoro-N-((R)-1-((1s,4S)-4-(6-fluoroquinolin-4-yl)cyclohexyl)ethyl)-cyclobutanecarboxamide] | < 1 µM
Cc1ccc(CC(=O)NCC2CCN(c3ccnc4ccc(F)cc34)CC2)cc1 [Example 1, N-((1-(6-Fluoroquinolin-4-yl)piperidin-4-yl)methyl)-2-(p-tolyl)acetamide] | < 0.1 µM
COc1ccc(CC(=O)N[C@H](C)[C@H]2CC[C@@H](c3ccnc4ccc(F)cc43)CC2)cc1 [Example 10, N-((R)-1-((1s,4S)-4-(6-fluoroquinolin-4-yl)cyclohexyl)ethyl)-2-(4-methoxyphenyl)acetamide] | < 1 µM
